Assay results as given in US20050049198A1, “Method of modulating the activity of calcium channels in cardiac cells and reagents therefor” (priority 2001, published 2005).
“Also recorded” adds a separate entry of the source. Where no end group is shown, it is not given here. [ ]: non-standard residue; d: D form.

Tests used:
[1] = test system: RyR channels of cardiac SR vesicles; assay: Ca2+ release from cardiac SR vesicles; format: biochemical, sheep; settings: for Ca2+-activated Ca2+ release / caffeine-activated Ca2+ release: 20 μM Ca2+ or 2 mM caffeine plus peptide; for initial rate of Ca2+ release, peptide alone: 30 μM and 50 μM peptide, no additional activating factors; for rate of Ca2+ release in the absence of activating Ca2+ or caffeine: high concentrations of >30 μM peptide
Procedure: Extravesicular [Ca^2+] was monitored at 710 nm using either a Cary 50 or Cary 100 spectrophotometer. […] Vesicles were loaded with Ca^2+ by 4 additions of 3 μl aliquots of 5 mM CaCl2, to a final concentration of 7.5 μM Ca^2+. Thapsigargin (200 nM) was then added to block the SR Ca^2+ ATPase. Finally the peptides were added either alone, or with 20 μM Ca^2+ or 2 mM caffeine. The rate of Ca^2+ release in the presence of thapsigargin was measured just before addition of the activating agents and initial rates of Ca^2+ release were measured immediately after addition of the activating agents. The specific blocker of RyR activity, […] ruthenium red, was then added to confirm that Ca^2+ release was through RyR channels. The Ca^+ ionophore A23187 (3 μg/ml) was added at the end of the experiment to determine the amount of Ca^2+ remaining in the SR vesicles. When Ca^2+ release was complete, the Ca^2+ transient following addition of the ionophore, was indicative of the fraction of vesicles containing Ca^2+ that could not be released through RyR channel (presumably vesicles from longitudinal SR that lack RyR channels). […] Experiments were repeated on vesicles isolated from 3 different sheep heart preparations.

cardiac RyR2 channel = assay: Single channel activity of cardiac RyR2 channels in lipid bilayers; format: biochemical, sheep; settings: for effect on cardiac RyR2 channel activity: cis 10^−7M Ca2+
Procedure: SR vesicles were isolated from sheep heart as described by Layer et al. (1995, J. Membr. Biol. 147:7-22).
Experiments were carried out at 20° C. to 25° C., essentially according to Ahern et al. (1994, FEBS Lett. 352:369-374) and Layer et al. (1995, J. Membr. Biol. 147:7-22). Bilayers were formed from phosphatidylethanolamine, phosphatidylserine and phosphatidylcholine (5:3:2 w/w/w) (Avanti Polar Lipids, Alabaster, Ala.) across an aperture with a diameter of […] in the wall of a 1.0 ml Delrin cup (Cadillac Plastics, Australia). Terminal cisternae (TC) vesicles (final concentration, 10 μg/ml) and drugs were added to the cytoplasmic (i.e. cis) chamber. The bilayer potential was controlled, and single channel activity recorded, using an Axopatch 200A amplifier (Axon Instruments, Foster City, Calif.). For experimental purposes, the cis chamber was held at ground and the voltage of the lumen (i.e. trans) chamber controlled. Bilayer potential is expressed in the conventional way as Vcis−Vtrans, (i.e. Vcytoplasm−Vlumen).
Bilayers were formed as described above and vesicles were incorporated into the bilayer using a cis solution containing 230 mM Cs methanesulphonate (MS), 20 mM CsCl, 1 mM CaCl2 and 10 mM N-tris[hydroxymethyl]methyl-2-aminoethanesulfonic acid (TES, pH 7.4 with CsOH), and a trans solution containing 30 mM Cs MS, 20 mM CsCl, 1 mM CaCl2 and 10 mM TES (pH7.4).
To prevent incorporation of multiple channels into the bilayer, the cis solution was replaced by perfusion of the cis chamber when channel activity was observed. The cis perfusion solution was identical to the initial cis solution, except that the [Ca^2+] was 3×10^−7M, buffered using 1 mM BAPTA. CsMS (200 mM) was added to the trans chamber following channel incorporation to produce symmetrical solutions.
Bilayer potential was changed every 30 s, over 2 min following each addition of peptide to the cis chamber. Control activity was recorded for 2 min after addition of 200 mM CsMS to the trans chamber. Activity was then recorded for 2 min after cis addition of each aliquot of peptide (six different peptide concentrations were examined in each channel). Peptides were perfused out of the cis chamber, and the recovery recorded. Channels were finally exposed to 30 μM ruthenium red.
Currents were filtered at 1 kHz (8-pole low pass Bessel, −3 dB) and digitized at 5 kHz. Analysis of single channel records (using Channel 2, developed by P W Gage and M Smith) yielded channel open probability (Po), frequency of events (Fo), open times, closed times and mean open or closed times (To or Tc) as well as mean current (I′). The event discriminator was set above the baseline noise at ˜20% of the maximum current, rather than the usual 50%, and so openings to both sub conductance and maximum conductance levels were included in the analysis. Channel activity was analyzed over two 30 s periods of continuous activity at +40 mV and two 30 s periods of continuous activity at −40 mV.
The Ca^2+ concentration in the cis solution was either buffered at 100 nM or was adjusted to 100 μM by adding an CaCl2 to the cis solution in the absence of BAPTA.

cardiac SR = cardiac SR (Homo sapiens, UniProt Q92736); settings: cited from earlier work
cardiac RyR2 channels = cardiac RyR2 channels (Homo sapiens, UniProt Q92736); settings: cited from earlier work
RyR2 = RyR2 (Homo sapiens, UniProt Q92736); settings: cited from earlier work
[2] = target: cardiac ryanodine receptor (RyR2) calcium channel from sheep heart SR vesicles (sheep, UniProt A0ACI6Q5I6 1-4956); assay: cell-based or functional assay

Sequence of cardiac RyR2 channels (Q92736 whole entry): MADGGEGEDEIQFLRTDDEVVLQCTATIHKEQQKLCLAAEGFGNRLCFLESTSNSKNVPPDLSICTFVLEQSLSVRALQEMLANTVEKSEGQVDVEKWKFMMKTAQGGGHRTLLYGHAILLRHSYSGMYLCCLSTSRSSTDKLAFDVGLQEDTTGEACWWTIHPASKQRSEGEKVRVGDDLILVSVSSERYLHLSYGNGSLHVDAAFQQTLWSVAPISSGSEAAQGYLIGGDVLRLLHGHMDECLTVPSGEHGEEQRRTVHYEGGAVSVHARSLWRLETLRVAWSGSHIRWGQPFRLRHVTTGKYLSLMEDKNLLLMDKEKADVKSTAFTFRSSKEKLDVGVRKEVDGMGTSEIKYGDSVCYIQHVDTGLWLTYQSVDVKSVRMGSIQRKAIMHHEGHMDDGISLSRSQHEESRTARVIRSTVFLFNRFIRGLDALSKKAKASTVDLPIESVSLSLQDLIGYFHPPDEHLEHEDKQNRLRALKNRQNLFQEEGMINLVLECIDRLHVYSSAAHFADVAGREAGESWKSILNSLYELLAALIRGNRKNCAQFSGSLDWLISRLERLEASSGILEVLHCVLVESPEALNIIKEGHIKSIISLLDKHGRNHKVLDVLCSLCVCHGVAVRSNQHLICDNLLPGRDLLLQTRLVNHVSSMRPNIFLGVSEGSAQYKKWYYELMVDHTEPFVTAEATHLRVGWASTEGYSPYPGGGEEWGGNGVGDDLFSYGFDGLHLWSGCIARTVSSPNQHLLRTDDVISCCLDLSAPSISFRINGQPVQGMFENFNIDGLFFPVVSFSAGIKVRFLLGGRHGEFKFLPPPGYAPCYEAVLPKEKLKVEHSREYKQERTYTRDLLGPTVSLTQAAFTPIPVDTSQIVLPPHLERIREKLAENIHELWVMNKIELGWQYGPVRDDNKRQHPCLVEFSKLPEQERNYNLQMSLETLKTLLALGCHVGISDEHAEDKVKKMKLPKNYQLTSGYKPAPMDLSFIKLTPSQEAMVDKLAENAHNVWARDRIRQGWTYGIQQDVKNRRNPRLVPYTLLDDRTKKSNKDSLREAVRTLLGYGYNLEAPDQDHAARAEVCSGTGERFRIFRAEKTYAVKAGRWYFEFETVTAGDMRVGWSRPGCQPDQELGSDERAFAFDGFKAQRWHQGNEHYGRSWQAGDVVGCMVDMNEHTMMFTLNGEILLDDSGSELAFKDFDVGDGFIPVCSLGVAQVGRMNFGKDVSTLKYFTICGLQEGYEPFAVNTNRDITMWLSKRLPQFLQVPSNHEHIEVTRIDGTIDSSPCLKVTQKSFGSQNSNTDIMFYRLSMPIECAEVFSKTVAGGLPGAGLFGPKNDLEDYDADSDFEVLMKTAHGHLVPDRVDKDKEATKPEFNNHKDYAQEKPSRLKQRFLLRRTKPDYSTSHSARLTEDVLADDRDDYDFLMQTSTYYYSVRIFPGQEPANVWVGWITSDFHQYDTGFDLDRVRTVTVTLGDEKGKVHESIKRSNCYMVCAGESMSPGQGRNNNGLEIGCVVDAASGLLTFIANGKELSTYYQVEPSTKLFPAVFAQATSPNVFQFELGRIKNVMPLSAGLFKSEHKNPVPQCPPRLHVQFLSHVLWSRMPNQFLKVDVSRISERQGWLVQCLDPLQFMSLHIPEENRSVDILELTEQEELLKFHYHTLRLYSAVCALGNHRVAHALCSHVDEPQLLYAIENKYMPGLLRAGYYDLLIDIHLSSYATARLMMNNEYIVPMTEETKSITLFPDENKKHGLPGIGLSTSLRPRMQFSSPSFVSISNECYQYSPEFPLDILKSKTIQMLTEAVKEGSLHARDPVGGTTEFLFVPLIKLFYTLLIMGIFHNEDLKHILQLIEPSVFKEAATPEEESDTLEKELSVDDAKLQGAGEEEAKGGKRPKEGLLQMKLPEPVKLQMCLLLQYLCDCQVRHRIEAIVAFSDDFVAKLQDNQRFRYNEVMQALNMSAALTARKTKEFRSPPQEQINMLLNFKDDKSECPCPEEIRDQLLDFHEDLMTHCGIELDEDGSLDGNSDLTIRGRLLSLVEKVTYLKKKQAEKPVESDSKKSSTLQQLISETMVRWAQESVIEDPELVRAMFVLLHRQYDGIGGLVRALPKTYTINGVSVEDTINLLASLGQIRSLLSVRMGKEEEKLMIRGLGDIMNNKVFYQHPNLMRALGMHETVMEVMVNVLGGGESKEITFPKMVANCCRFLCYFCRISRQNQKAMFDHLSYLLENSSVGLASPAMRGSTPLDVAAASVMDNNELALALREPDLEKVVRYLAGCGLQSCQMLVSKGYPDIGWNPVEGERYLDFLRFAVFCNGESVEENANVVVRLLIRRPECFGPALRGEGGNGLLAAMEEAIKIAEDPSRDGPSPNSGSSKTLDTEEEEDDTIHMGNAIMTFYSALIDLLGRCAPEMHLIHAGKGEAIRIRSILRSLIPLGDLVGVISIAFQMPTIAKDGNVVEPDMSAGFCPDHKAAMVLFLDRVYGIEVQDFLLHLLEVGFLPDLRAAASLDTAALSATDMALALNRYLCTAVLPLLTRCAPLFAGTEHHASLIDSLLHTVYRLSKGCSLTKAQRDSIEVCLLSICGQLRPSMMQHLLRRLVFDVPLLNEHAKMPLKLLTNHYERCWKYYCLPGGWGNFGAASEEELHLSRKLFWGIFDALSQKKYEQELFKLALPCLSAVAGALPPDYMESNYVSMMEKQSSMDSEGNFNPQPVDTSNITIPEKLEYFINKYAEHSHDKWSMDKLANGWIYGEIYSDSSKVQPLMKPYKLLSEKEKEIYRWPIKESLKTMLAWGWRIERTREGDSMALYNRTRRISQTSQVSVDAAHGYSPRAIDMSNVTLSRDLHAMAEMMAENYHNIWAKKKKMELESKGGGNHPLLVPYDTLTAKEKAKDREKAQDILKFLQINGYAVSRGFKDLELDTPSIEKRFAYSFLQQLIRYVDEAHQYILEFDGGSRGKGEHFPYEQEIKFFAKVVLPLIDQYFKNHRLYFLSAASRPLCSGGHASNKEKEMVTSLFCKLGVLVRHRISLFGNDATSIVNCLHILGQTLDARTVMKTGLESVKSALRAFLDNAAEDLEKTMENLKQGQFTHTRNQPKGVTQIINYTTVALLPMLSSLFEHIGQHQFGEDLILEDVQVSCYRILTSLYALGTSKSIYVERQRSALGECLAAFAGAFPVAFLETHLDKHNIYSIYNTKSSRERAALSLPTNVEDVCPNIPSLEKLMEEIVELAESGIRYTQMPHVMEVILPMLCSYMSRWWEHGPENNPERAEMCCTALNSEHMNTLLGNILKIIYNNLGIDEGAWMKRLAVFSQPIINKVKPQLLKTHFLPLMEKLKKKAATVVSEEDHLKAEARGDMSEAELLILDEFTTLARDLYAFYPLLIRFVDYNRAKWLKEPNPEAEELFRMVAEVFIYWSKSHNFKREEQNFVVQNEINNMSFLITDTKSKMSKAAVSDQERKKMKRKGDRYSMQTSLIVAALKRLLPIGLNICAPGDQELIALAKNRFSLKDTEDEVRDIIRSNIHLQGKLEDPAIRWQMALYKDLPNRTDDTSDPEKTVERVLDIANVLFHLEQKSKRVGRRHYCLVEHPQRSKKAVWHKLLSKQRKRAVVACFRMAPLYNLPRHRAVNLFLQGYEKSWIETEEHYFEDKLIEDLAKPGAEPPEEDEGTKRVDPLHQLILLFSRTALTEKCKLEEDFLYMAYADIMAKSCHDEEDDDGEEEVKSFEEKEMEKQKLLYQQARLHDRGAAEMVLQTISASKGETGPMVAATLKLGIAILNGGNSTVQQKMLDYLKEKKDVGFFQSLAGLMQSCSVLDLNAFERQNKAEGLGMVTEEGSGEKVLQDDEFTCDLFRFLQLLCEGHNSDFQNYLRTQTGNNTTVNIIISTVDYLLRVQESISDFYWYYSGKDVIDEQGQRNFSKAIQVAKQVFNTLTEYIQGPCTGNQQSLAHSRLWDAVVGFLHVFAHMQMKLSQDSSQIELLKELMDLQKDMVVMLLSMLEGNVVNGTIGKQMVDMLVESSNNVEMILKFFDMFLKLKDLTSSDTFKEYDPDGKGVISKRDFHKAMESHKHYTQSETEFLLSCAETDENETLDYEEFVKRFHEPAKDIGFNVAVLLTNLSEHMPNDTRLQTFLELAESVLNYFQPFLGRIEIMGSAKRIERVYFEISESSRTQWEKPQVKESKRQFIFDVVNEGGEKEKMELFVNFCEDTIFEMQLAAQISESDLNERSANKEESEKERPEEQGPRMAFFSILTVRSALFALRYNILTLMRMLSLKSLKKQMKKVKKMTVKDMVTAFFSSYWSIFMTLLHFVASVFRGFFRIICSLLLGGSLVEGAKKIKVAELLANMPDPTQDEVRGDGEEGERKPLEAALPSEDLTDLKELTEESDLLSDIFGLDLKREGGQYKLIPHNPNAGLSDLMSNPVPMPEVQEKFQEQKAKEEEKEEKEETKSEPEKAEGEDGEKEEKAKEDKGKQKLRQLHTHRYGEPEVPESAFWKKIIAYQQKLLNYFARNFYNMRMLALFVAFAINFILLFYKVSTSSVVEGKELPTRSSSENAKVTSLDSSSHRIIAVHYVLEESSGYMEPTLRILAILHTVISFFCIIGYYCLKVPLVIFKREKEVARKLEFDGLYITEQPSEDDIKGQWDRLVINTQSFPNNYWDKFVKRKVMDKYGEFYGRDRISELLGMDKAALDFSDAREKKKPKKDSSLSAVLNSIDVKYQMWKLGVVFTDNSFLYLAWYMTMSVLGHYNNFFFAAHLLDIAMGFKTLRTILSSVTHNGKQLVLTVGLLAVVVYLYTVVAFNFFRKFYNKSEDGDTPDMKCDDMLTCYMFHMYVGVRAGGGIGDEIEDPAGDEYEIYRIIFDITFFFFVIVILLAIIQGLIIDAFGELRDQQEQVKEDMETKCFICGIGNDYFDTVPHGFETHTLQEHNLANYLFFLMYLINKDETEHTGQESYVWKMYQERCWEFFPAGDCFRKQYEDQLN
Sequence of cardiac SR (Q92736 whole entry): as above
Sequence of RyR2 (Q92736 whole entry, species assumed): as the sequence (Q92736 whole entry) above

Molecule: Cn1c(=O)c2c(ncn2C)n(C)c1=O [caffeine, reference compound]
- initial rate of Ca2+ release ([1]; 2 mM caffeine, no peptide): 10 μmoles of Ca^2+ per mg of SR protein per min

Molecule: N.N.N.N.N.N.N.N.N.N.N.N.N.N.[Cl-].[Cl-].[Cl-].[Cl-].[Cl-].[Cl-].[O-2].[O-2].[Ru+3].[Ru+3].[Ru+4] [ruthenium red, reference compound]
- effect on RyR channel (cardiac RyR2 channel; 30 μM, end of experiment): block the channel
- effect on Ca2+ release ([1]; added after activating agents): terminated

Molecule: GLPDKTEEEKSVMAKKLEQK [peptide NB, non-specific peptide; the N-terminal portion of the B segment of the II-III loop, reference compound]
- channel activity (cardiac RyR2 channel; 1 μM or 10 μM cis peptide, +40 mV or −40 mV): no modified channel activity

Molecule: TRKSRLARGQKAKAKSEMRE [Peptide A1S, reference compound]
- bilayers in which channel activity was reduced (cardiac RyR2 channel; 1 μM or 10 μM cis peptide): 2 out of 2
- cardiac RyR2 channel activity (cardiac RyR2 channel; 1 μM or 10 μM cis peptide): reduced cardiac RyR2 channel activity

Molecule: TSAQKAKAEERKRRKMARDGL (TSAQKAKAEERKRRKMA[dR]GL) [SEQ ID NO: 10]
- Ca2+-activated Ca2+ release / caffeine-activated Ca2+ release [1]: also enhanced
- initial rate of Ca2+ release, peptide alone [1]: small increase
- rate of Ca2+ release in the absence of activating Ca2+ or caffeine [1]: marginally enhanced

Molecule: TSAQKAKAEERKRRKMARGL [SEQ ID NO: 8]
- initial rate of Ca2+ release, peptide alone [1]: small increase

Molecule: TSAQKAKAEERKRRKMSRDGL (TSAQKAKAEERKRRKMS[dR]GL) [SEQ ID NO: 9]
- channel activity (relative mean current) (cardiac RyR2 channel; 100 nM cis Ca2+): clearly enhanced
- channel activity (cardiac RyR2 channel; 100 nM cis Ca2+, 10 nM peptide): significant increase in activity
- relative mean current at higher peptide concentrations (cardiac RyR2 channel; 100 nM cis Ca2+, 1 and 10 μM peptide, +40 mV): fall
- peptide concentration at which depression was seen (cardiac RyR2 channel; 100 nM cis Ca2+, +40 mV): > 100 nM
- increase in relative mean current (cardiac RyR2 channel; 100 nM cis Ca2+, both positive and negative potentials): 10-20 fold
- channel activity (relative mean current) (cardiac RyR2 channel; 100 μM cis Ca2+): failed to activate channels; also recorded: clearly depressed
- peptide concentration of maximum effect (depression) (cardiac RyR2 channel; 100 μM cis Ca2+): 100 nM
- voltage dependence of reduction in channel activity (cardiac RyR2 channel; 100 μM cis Ca2+): greater at +40 mV than −40 mV; also recorded: significantly greater at +40 mV
- frequency of events (cardiac RyR2 channel; +40 mV and −40 mV): corresponding increase
- effect at high peptide concentrations (cardiac RyR2 channel; +40 mV, voltage- and Ca2+-dependent): blocked the channel pore
- peptide concentrations enhancing cardiac RyR activity in lipid bilayer (cardiac RyR2 channel; low concentrations): 1 to 10 nM
- Ca2+-activated Ca2+ release / caffeine-activated Ca2+ release [1]: also enhanced
- initial rate of Ca2+ release, peptide alone [1]: small increase
- rate of Ca2+ release in the absence of activating Ca2+ or caffeine [1]: marginally enhanced

Molecule: TSAQKAKAEERKRRKMSRGL [SEQ ID NO: 2, 20-mer peptide (Thr671 to Leu690) of the II-III cytoplasmic loop of human skeletal muscle DHPR]
- bilayer samples with similar activation and inhibition (cardiac RyR2 channel): 8 out of 8
- lowest peptide concentration at which activation of cardiac RyR2 was observed (cardiac RyR2 channel): 1 nM
- peptide concentration above which channel opening began to decline (cardiac RyR2 channel; +40 mV): above 100 nM
- frequency of opening (cardiac RyR2 channel; +40 mV and −40 mV, after peptide addition to cis chamber): higher frequency of opening
- normalized mean current (cardiac RyR2 channel; +40 mV, 10 nM peptide): doubled
- channel activity (cardiac RyR2 channel; +40 mV, 65 nM peptide): increased; also recorded: mostly in the open configuration
- channel openings (cardiac RyR2 channel; +40 mV, 10 μM peptide): only a few brief channel openings
- channel configuration (cardiac RyR2 channel; +40 mV, 32.5 μM peptide): mostly in the closed configuration
- normalized mean current at higher peptide concentrations (cardiac RyR2 channel; +40 mV, between about 10 μM and 50 μM peptide): fell dramatically
- effect on cardiac RyR2 channel activity (cardiac RyR2 channel; +40 mV): increases and then decreases the activity
- effect on cardiac RyR2 channel activity (cardiac RyR2 channel; +40 mV, listed as 20-mer peptide): strong inhibition
- duration of channel openings (cardiac RyR2 channel; −40 mV, 10^−7M cis Ca, versus absence of peptide): prolonged channel openings
- effect on cardiac RyR2 channel activity (cardiac RyR2 channel; −40 mV): increases the activity
- effect on cardiac RyR2 channel activity (cardiac RyR2 channel; −40 mV, listed as 20-mer peptide): significant activation
- channel open probability (Po) (cardiac RyR2 channel; −40 mV, particularly at 65 nM peptide): high open probability
- RyR2 channel activity (cardiac RyR2 channel; −40 mV, peptide increased to 6.5 μM): fell slightly
- channel openings (cardiac RyR2 channel; −40 mV, within 10 s of adding 65 nM peptide): channel openings increased
- initial rate of Ca2+ release, peptide alone [1]: small increase
- induction of Ca2+ release from cardiac SR (cardiac SR): not to induce
- enhancement of [3H]ryanodine binding to cardiac RyR2 channels (cardiac RyR2 channels): not to induce Ca^2+ release from cardiac SR, or to enhance [^3H]ryanodine binding
- binding to RyR2 (RyR2): binds

Molecule: TSAQKAKAEERKRRKMSRGL [20-mer peptide of the II-III cytoplasmic loop of skeletal DHPR alpha-1 subunit (Thr671 to Leu690)]
- mean current (I'p/I'c) at 10 nM peptide, -40 mV or +40 mV [2]: ~2 fold
- mean current at -40 mV (increase in 50 µM peptide) [2]: 4 fold

Molecule: TSAQKAKAEERKRRKMS[dR]GL [SEQ ID NO: 9 peptide (20-mer of SEQ ID NO: 2 with Arg688 replaced by the D isomer of arginine)]
- mean closed time at +40 mV (decrease) [2]: 80 fold
- mean closed time at -40 mV (decrease) [2]: 170 fold
- mean open time at both potentials (increase) [2]: 8 fold
- open probability at +40 mV (increase) [2]: ~10 fold
- open probability at -40 mV (increase) [2]: ~50 fold
